Several values for one entry are separate records, joined by “and”; a condition that tells them apart may be missing. Equal entries are not always repeated.
Columns and labels:
[1] = test system: primary human fibroblasts; test: Collagen crosslinking in vitro, scar-in-a-jar, LC-MS/MS; format: cell-based; parameters: PYD: unit not given beside the values; HLNL / DHLNL / DPD: unit not given here; details: 11 days, biological replicates
Method: To determine the effects of PXS-4787 on collagen cross-link formation, primary human fibroblasts from six different participants (six biological replicates) were cultured for 11 days using ‘scar-in-a-jar’ conditions in the presence of 0, 1, and 10 µM of inhibitor. Liquid chromatography with tandem mass spectrometry (LC-MS/MS) was used to measure hydroxyproline and cross-link concentrations in these samples. Hydroxyproline concentration provides a close estimate of collagen concentration as it is present in high concentrations in collagens and is critical to fibril formation.
Primary scar fibroblasts were seeded in a complete media at density 75 × 10^4 cells per well in a T-25 tissue culture flask at 37 °C and 5% CO2. After 16 h the complete media was replaced by the stimulated media ([…] Ficoll 70 and (25 mg/ mL) Ficoll 400, 5 ng/mL TGF-β1, 0.5% FBS, […] L-ascorbic acid-2-phosphate) in DMEM-Glutamax™ supplemented with 0.5% FBS and 1% Penicillin/ Streptomycin and 1 and 10 µM concentrations of PXS-4787 for 11 days to allow time for sufficient crosslinking of extracellular collagen. After 11 days, the media was aspirated and cells were trypsinized for 30 min and reduced with 12 mg/mL Sodium Borohydride in 20 mM Sodium Hydroxide solution followed and incubated for 30 min at room temperature. The pH of the solution was made acidic using 50 µL of neat acetic acid. The solution was centrifuged at 20,000g for 15 min at 4 °C followed by three washes with MilliQ water and samples processed for crosslinking analysis.
Cell pellets or isolated tissue samples were completely hydrolyzed in 1.5 mL 6 M hydrochloric acid for 24 h at 105 °C. After complete hydrolysis, samples were dried using a vacuum dryer and reconstituted using 200 µL MilliQ water. The sample clean-up was performed using solid-phase extraction method which uses C18 and SCX solid-phase extraction cartridges for sample purification. The samples were run on UPLC-MS-MS (Mass Spectrometer: Thermo Scientific TSQ Endura Triple quadrupole, UPLC: Thermo Scientific Dionex UltiMate 3000) using Agilent RRHD SB-C18,2.1x50mm,1.8um analytical column and solvent A: 10 mM ammonium formate, 0.1% formic acid, 0.1% HFBA in H2O and solvent B: 10 mM ammonium formate, 0.1% formic acid, 0.1% HFBA in MeOH and analyzed as previously described. Limits of detection are listed in Supplementary Table S4.

Glutamate, Kainate = test: Eurofins panel 232700; format: binding, rat; details: 10 µM
LOX = test: Substrate (putrescine) competition; format: biochemical; parameters: Fig. 2D activity: scale not given here
Excerpt: PXS-4787 competes with a model substrate (putrescine) for the LOX binding site (Fig. 2d). The allylamine of PXS-4787 interacts with the co-factor of the enzyme and elicits mechanism-based inhibition (Fig. 2e). Through careful optimization, and in contrast to BAPN, PXS-4787 selectivity targets lysyl oxidases and is neither an inhibitor of, nor a substrate for, related oxidases (Fig. 2f, g and Supplementary Table S1). Furthermore, PXS-4787 was clean when profiled in a broad panel of macromolecular targets using enzyme and radioligand binding assays (LeadProfilingScreen, Eurofins CEREP Panlabs, 68 assays, test concentration 10 µM; Supplementary Data S1).
Data are expressed as mean ± SEM. Subsequent statistical analysis was performed with unpaired two-sided Student’s t tests. *p < 0.05, **p < 0.01, ***p < 0.001and ****p < 0.0001. Source data are provided as a Source Data file.
The measurement of the enzymatic activity of all lysyl oxidase family members was based on the detection of hydrogen peroxide with an Amplex-Red oxidation assay, as previously described; miniaturized in 384 well formats, with the appropriate combination of substrate and assay buffer for each individual enzyme. After a 30 min pre-incubation of the enzyme at 37 °C with the test compound (or with different incubation times for the time-dependency assay), one volume of reaction mixture containing 120 μM Amplex Red (AR) (Life Technologies), 1.5 U/mL horseradish peroxidase (HRP) (Sigma-Aldrich) and the specific substrate was added to each sample. The relative fluorescence units (RFU) were then measured every 2.5 min for 30 min at 37 °C, excitation 565 nm and emission 590, on a BMG Clariostar Microplate Reader. All the substrates were used at concentrations corresponding to their Km towards the corresponding enzyme, or with a range of different concentrations for the substrate competition experiments.

## NC/C=C(\F)CS(=O)(=O)c1ccccc1 [PXS-4787]
[1]; 1 µM
  DHLNL: 143.775 and 329.16 and 113.02 and 83.13 and 359.48 and 365.16 and 104.82
  DPD: 2.93 and 49.66 and 7.64 and 1.83 and 44.6 and 15.94 and 5.96
  HLNL: 2792.14 and 4779.62 and 1377.5 and 1440.95 and 5514.92 and 6254.02 and 873.64
  HYP (hydroxyproline): did not reduce and 100208 and 1106205 and 113032 and 54746.7 and 1239040 and 1208884 and 155115
  PYD: 26.445 and 138.7 and 33.16 and 18.555 and 194.48 and 107.58 and 32.22
[1]; 10 µM
  DHLNL: 74.25 and 254.16 and 91.76 and 55.65 and 288.12 and 246.36 and 90.12
  DPD: 0 and 24.22 and 4.54 and 21.2 and 6.56 and 3.9
  HLNL: trend reduction and 1564.75 and 3443.58 and 1107.32 and 1868.37 and 4501.9 and 4758.54 and 846.68
  HYP (hydroxyproline): significantly (p = 0.0385) diminished and 52523.3 and 888147 and 121381 and 44633 and 1404421 and 949167 and 129547
  PYD: 5.86 and 65.12 and 17 and 7.95 and 92.68 and 46.62 and 20.6
Glutamate, Kainate
  % Inh.: 16%
LOX
  competition with model substrate putrescine for the LOX binding site: competes
LOX; 5.65e-10, putrescine 1.1 mM
  Fig. 2D activity: 89.58
LOX; 5.65e-10, putrescine 3.3 mM
  Fig. 2D activity: 93.22
LOX; 5.65e-10, putrescine 10 mM
  Fig. 2D activity: 98.29
LOX; 5.65e-10, putrescine 30 mM
  Fig. 2D activity: 96.57
LOX; 5.65e-10, putrescine 90 mM
  Fig. 2D activity: 93.38
LOX; 1.69e-9, putrescine 1.1 mM
  Fig. 2D activity: 84.4
LOX; 1.69e-9, putrescine 3.3 mM
  Fig. 2D activity: 94.23
LOX; 1.69e-9, putrescine 10 mM
  Fig. 2D activity: 94.63
LOX; 1.69e-9, putrescine 30 mM
  Fig. 2D activity: 93.67
LOX; 1.69e-9, putrescine 90 mM
  Fig. 2D activity: 92.69
LOX; 5.08e-9, putrescine 1.1 mM
  Fig. 2D activity: 89.54
LOX; 5.08e-9, putrescine 3.3 mM
  Fig. 2D activity: 93.84
LOX; 5.08e-9, putrescine 10 mM
  Fig. 2D activity: 97.41
LOX; 5.08e-9, putrescine 30 mM
  Fig. 2D activity: 96.12
LOX; 5.08e-9, putrescine 90 mM
  Fig. 2D activity: 91.41
LOX; 1.52e-8, putrescine 1.1 mM
  Fig. 2D activity: 91.17
LOX; 1.52e-8, putrescine 3.3 mM
  Fig. 2D activity: 95.49
LOX; 1.52e-8, putrescine 10 mM
  Fig. 2D activity: 93.57
LOX; 1.52e-8, putrescine 30 mM
  Fig. 2D activity: 97.83
LOX; 1.52e-8, putrescine 90 mM
  Fig. 2D activity: 92.34
LOX; 4.57e-8, putrescine 1.1 mM
  Fig. 2D activity: 81.95
LOX; 4.57e-8, putrescine 3.3 mM
  Fig. 2D activity: 93.97
LOX; 4.57e-8, putrescine 10 mM
  Fig. 2D activity: 95.69
LOX; 4.57e-8, putrescine 30 mM
  Fig. 2D activity: 96.71
LOX; 4.57e-8, putrescine 90 mM
  Fig. 2D activity: 93.31
LOX; 1.37e-7, putrescine 1.1 mM
  Fig. 2D activity: 73.72
LOX; 1.37e-7, putrescine 3.3 mM
  Fig. 2D activity: 89.33
LOX; 1.37e-7, putrescine 10 mM
  Fig. 2D activity: 93.77
LOX; 1.37e-7, putrescine 30 mM
  Fig. 2D activity: 94.81
LOX; 1.37e-7, putrescine 90 mM
  Fig. 2D activity: 93.26
LOX; 4.12e-7, putrescine 1.1 mM
  Fig. 2D activity: 60.93
LOX; 4.12e-7, putrescine 3.3 mM
  Fig. 2D activity: 75.9
LOX; 4.12e-7, putrescine 10 mM
  Fig. 2D activity: 89.23
LOX; 4.12e-7, putrescine 30 mM
  Fig. 2D activity: 89.28
LOX; 4.12e-7, putrescine 90 mM
  Fig. 2D activity: 90.74
LOX; 1.23e-6, putrescine 1.1 mM
  Fig. 2D activity: 32.69
LOX; 1.23e-6, putrescine 3.3 mM
  Fig. 2D activity: 47.9
LOX; 1.23e-6, putrescine 10 mM
  Fig. 2D activity: 67.1
LOX; 1.23e-6, putrescine 30 mM
  Fig. 2D activity: 81.21
LOX; 1.23e-6, putrescine 90 mM
  Fig. 2D activity: 86.37
LOX; 3.7e-6, putrescine 1.1 mM
  Fig. 2D activity: 11.17
LOX; 3.7e-6, putrescine 3.3 mM
  Fig. 2D activity: 19.92
LOX; 3.7e-6, putrescine 10 mM
  Fig. 2D activity: 38.7
LOX; 3.7e-6, putrescine 30 mM
  Fig. 2D activity: 60.57
LOX; 3.7e-6, putrescine 90 mM
  Fig. 2D activity: 76.61
LOX; 1.11e-5, putrescine 1.1 mM
  Fig. 2D activity: 3.35
LOX; 1.11e-5, putrescine 3.3 mM
  Fig. 2D activity: 6.43
LOX; 1.11e-5, putrescine 10 mM
  Fig. 2D activity: 14.18
LOX; 1.11e-5, putrescine 30 mM
  Fig. 2D activity: 32.4
LOX; 1.11e-5, putrescine 90 mM
  Fig. 2D activity: 57.08
LOX; 3.33e-5, putrescine 1.1 mM
  Fig. 2D activity: -0.5
LOX; 3.33e-5, putrescine 3.3 mM
  Fig. 2D activity: 1.53
LOX; 3.33e-5, putrescine 10 mM
  Fig. 2D activity: 3.65
LOX; 3.33e-5, putrescine 30 mM
  Fig. 2D activity: 9.04
LOX; 3.33e-5, putrescine 90 mM
  Fig. 2D activity: 24.08
LOX; 0.0001, putrescine 1.1 mM
  Fig. 2D activity: -0.9
LOX; 0.0001, putrescine 3.3 mM
  Fig. 2D activity: -0.36
LOX; 0.0001, putrescine 10 mM
  Fig. 2D activity: 0.174
LOX; 0.0001, putrescine 30 mM
  Fig. 2D activity: 1.46
LOX; 0.0001, putrescine 90 mM
  Fig. 2D activity: 4.82
